target: MAT2A (Homo sapiens (Human), UniProt P31153); experiment: MAT2A Biochemical Assay; conditions: Biomol Green readout O.D.620; 1 uM start, 3-fold dilution, 10 doses; read-out: MAT2A enzymatic IC50
Procedure: Example A: MAT2A Biochemical Assay
Compounds described herein were tested as follows:
• (1). Prepared 1×Assay buffer. • (2). Preparation of compound concentration gradient: the compounds test condition were 1 uM start, 3-fold dilution, 10 doses, singlet or duplicate. 100× concentration compounds were prepared in 384-well plate. Then used Echo 550 to transfer 250 nl to a 384-reaction plate for later use. Added 250 nl of 100% DMSO to the negative and positive control wells. • (3). Prepared 1.67× final concentration enzyme solution with 1×Assay buffer. • (4). Added 15 μl of 1.67× Enzyme solution to the compound wells and positive control wells; added 15 μl of 1 Assay buffer to the negative control wells. • (5). Centrifuged at 1000 rpm for 30 seconds and incubate for 15 minutes. • (6). Prepared 2.5× final concentration Substrate mix solution with 1×Assay buffer. • (7). Added 10 μl of 2.5× final concentration Substrate mix solution to start the reaction. • (8). Centrifuged at 1000 rpm for 30 seconds and incubate for 150 minutes. • (9). Added 50 μl Biomol Green to stop the reaction, centrifuge at 1000 rpm for 30 seconds and incubate for 15 minutes. read O.D.620, process data.
• (1) Using GraphPad Prism 5. • (2) % Inh=(Max signal−Compound signal)/(Max signal−Min signal)*100. • (3) Max signal was obtained from the positive control wells. • (4) Min signal was obtained from the negative control wells.

Chain of MAT2A (P31153 whole entry, species assumed): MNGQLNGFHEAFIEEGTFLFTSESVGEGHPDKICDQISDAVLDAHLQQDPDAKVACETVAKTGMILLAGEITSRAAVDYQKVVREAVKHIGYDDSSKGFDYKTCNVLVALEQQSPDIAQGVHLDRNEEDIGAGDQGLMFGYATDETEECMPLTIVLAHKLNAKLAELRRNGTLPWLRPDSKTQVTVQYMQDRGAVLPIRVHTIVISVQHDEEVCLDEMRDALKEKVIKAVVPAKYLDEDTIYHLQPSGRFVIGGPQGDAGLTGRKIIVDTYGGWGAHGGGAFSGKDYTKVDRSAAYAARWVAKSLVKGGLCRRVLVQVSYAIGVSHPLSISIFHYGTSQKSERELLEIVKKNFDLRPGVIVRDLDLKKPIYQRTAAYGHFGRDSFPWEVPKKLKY

IC50, < 50 nM:
C#CCNc1nc(=O)n(-c2cccnc2C)c2cc(Br)cc(OC)c12 [Example 19, 7-bromo-5-methoxy-1-(2-methylpyridin-3-yl)-4-(prop-2-yn-1-ylamino)quinazolin-2 (1H)-one]
C#CC1(Nc2nc(=O)n(-c3cccnc3)c3cc(Cl)ccc23)CC1 [Example 4]
C=CCNc1nc(=O)n(-c2cccnc2)c2cc(Cl)ccc12 [Example 5, 4-(allylamino)-7-chloro-1-(pyridin-3-yl)quinazolin-2 (1H)-one]
C#CC1(Nc2nc(=O)n(-c3cccnc3C)c3cc(C(F)(F)F)ccc23)CC1 [Example 46, 4-((1-ethynylcyclopropyl)amino)-1-(2-methylpyridin-3-yl)-7-(trifluoromethyl)quinazolin-2 (1H)-one]
C#CCNc1nc(=O)n(-c2cccnc2C)c2cc(C(F)(F)F)cc(OC(F)F)c12 [Example 40, 5-(difluoromethoxy)-1-(2-methylpyridin-3-yl)-4-(prop-2-yn-1-ylamino)-7-(trifluoromethyl)quinazolin-2 (1l)-one]
C#CCNc1nc(=O)n(-c2cccnc2C)c2cc(Cl)cc(F)c12 [Example 30, 7-chloro-5-fluoro-1-(2-methylpyridin-3-yl)-4-(prop-2-yn-1-ylamino)quinazolin-2 (1H)-one]
C#CCNc1nc(=O)n(-c2nccnc2C)c2cc(C(F)(F)F)cc(OC)c12 [Example 48, 5-methoxy-1-(3-methylpyrazin-2-yl)-4-(prop-2-yn-1-ylamino)-7-(trifluoromethyl)quinazolin-2 (1H)-one]
O=c1nc(NCC#CC2CC2)c2ccc(Cl)cc2n1-c1cccnc1 [Example 2, 7-chloro-4-((3-cyclopropylprop-2-yn-1-yl)amino)-1-(pyridin-3-yl)quinazolin-2 (1H)-one]
C#CCNc1nc(=O)n(-c2cnccn2)c2cc(Cl)ccc12 [Example 17, 7-chloro-4-(prop-2-yn-1-ylamino)-1-(pyrazin-2-yl)quinazolin-2 (1H)-one]
C=CC1(Nc2nc(=O)n(-c3cccnc3C)c3cc(Cl)cc(OC)c23)CC1 [Example 75, 7-chloro-5-methoxy-1-(2-methylpyridin-3-yl)-4-((1-vinylcyclopropyl)amino)quinazolin-2 (1H)-one]
C#CCNc1nc(=O)n(-c2cccnc2)c2cc(Cl)ccc12 [Example 1, 7-chloro-4-(prop-2-yn-1-ylamino)-1-(pyridin-3-yl)quinazolin-2 (1H)-one]
C#CCNc1nc(=O)n(-c2cccnc2)c2nc(C(F)(F)F)ncc12 [Example 61, 4-(prop-2-yn-1-ylamino)-1-(pyridin-3-yl)-7-(trifluoromethyl)pyrimido[4,5-d]pyrimidin-2 (1H)-one]
C#CC(C)Nc1nc(=O)n(-c2cccnc2)c2cc(Cl)cc(OC)c12 (stereo not drawn) [Example 65]
C#CCNc1nc(=O)n(-c2cccnc2)c2cc(C(F)(F)F)ccc12 [Example 7, 4-(prop-2-yn-1-ylamino)-1-(pyridin-3-yl)-7-(trifluoromethyl)quinazolin-2 (1H)-one]
C#CC1(Nc2nc(=O)n(-c3cccnc3)c3nc(C(F)(F)F)ccc23)CC1 [Example 68, 4-((1-ethynylcyclopropyl)amino)-1-(pyridin-3-yl)-7-(trifluoromethyl)pyrido[2,3-d]pyrimidin-2 (1H)-one]
C#CCNc1nc(=O)n(-c2cccnn2)c2nc(C(F)(F)F)ccc12 [Example 63, 4-(prop-2-yn-1-ylamino)-1-(pyridazin-3-yl)-7-(trifluoromethyl)pyrido[2,3-d]pyrimidin-2 (1H)-one]
C#CC1(Nc2nc(=O)n(-c3cccnc3C)c3cc(Cl)cc(F)c23)CC1 [Example 31, 7-chloro-4-((1-ethynylcyclopropyl)amino)-5-fluoro-1-(2-methylpyridin-3-yl)quinazolin-2 (11H)-one]
C#CC(C)Nc1nc(=O)n(-c2cccnc2C)c2cc(Cl)cc(OC)c12 (stereo not drawn) [Example 26]
C#CCNc1nc(=O)n(-c2cnccn2)c2cc(Cl)cc(OC)c12 [Example 21, 7-chloro-5-methoxy-4-(prop-2-yn-1-ylamino)-1-(pyrazin-2-yl)quinazolin-2 (1H)-one]
C#CC(C)Nc1nc(=O)n(-c2cccnc2)c2cc(C(F)(F)F)cc(OC)c12 (stereo not drawn) [Example 35, 4-(but-3-yn-2-ylamino)-5-methoxy-1-(pyridin-3-yl)-7-(trifluoromethyl)quinazolin-2 (1H)-one]
C#CCNc1nc(=O)n(-c2cnccn2)c2cc(C(F)(F)F)cc(OC)c12 [Example 54, 5-methoxy-4-(prop-2-yn-1-ylamino)-1-(pyrazin-2-yl)-7-(trifluoromethyl)quinazolin-2 (1H)-one]
C=CCNc1nc(=O)n(-c2cccnc2C)c2cc(Cl)cc(OC)c12 [Example 74]
C#CC1(Nc2nc(=O)n(-c3nccnc3C)c3cc(Cl)cc(OC)c23)CC1 [Example 25, 7-chloro-4-((1-ethynylcyclopropyl)amino)-5-methoxy-1-(3-methylpyrazin-2-yl)quinazolin-2 (1H)-one]
C#CCNc1nc(=O)n(-c2cccnc2C)c2nc(C(F)(F)F)cc(OC)c12 [Example 42, 5-methoxy-1-(2-methylpyridin-3-yl)-4-(prop-2-yn-1-ylamino)-7-(trifluoromethyl)pyrido[2,3-d]pyrimidin-2 (1H)-one]
C#CCNc1nc(=O)n(-c2nccnc2C)c2cc(Cl)cc(OC)c12 [Example 23, 7-chloro-5-methoxy-1-(3-methylpyrazin-2-yl)-4-(prop-2-yn-1-ylamino)quinazolin-2 (1H)-one]
C#CC1(Nc2nc(=O)n(-c3cccnc3C)c3cc(Cl)cc(OC)c23)CCC1 [Example 28]
O=c1nc(NCC#CCN2CCOCC2)c2ccc(C(F)(F)F)cc2n1-c1cccnc1 [Example 14, 4-((4-morpholinobut-2-yn-1-yl)amino)-1-(pyridin-3-yl)-7-(trifluoromethyl)quinazolin-2 (1H)-one]
C#CC1(Nc2nc(=O)n(-c3cccnc3)c3cc(Cl)cc(OC)c23)CC1 [Example 66]
C#CC1(Nc2nc(=O)n(-c3cccnc3C)c3cc(Cl)cc(OC)c23)CC1 [Example 27, 7-chloro-4-((1-ethynylcyclopropyl)amino)-5-methoxy-1-(2-methylpyridin-3-yl)quinazolin-2 (11H)-one]
C#CCNc1nc(=O)n(-c2cccnc2C)c2cc(C(F)(F)F)cc(OC)c12 [Example 36, 5-methoxy-1-(2-methylpyridin-3-yl)-4-(prop-2-yn-1-ylamino)-7-(trifluoromethyl)quinazolin-2 (1H)-one]
C#CCNc1nc(=O)n(-c2cccnc2)c2cc(Br)ccc12 [Example 18, 7-bromo-4-(prop-2-yn-1-ylamino)-1-(pyridin-3-yl)quinazolin-2 (1H)-one]
C#CC1(Nc2nc(=O)n(-c3cccnc3)c3cc(C(F)(F)F)cc(OC)c23)CC1 [Example 47, 4-((1-ethynylcyclopropyl)amino)-5-methoxy-1-(pyridin-3-yl)-7-(trifluoromethyl)quinazolin-2 (1B)-one]
C#CC1(Nc2nc(=O)n(-c3cccnc3C)c3cc(Cl)ccc23)CC1 [Example 16, 7-chloro-4-((1-ethynylcyclopropyl)amino)-1-(2-methylpyridin-3-yl)quinazolin-2 (1H)-one]
C#CC1(Nc2nc(=O)n(-c3cccnc3C)c3cc(C(F)(F)F)cc(OC)c23)CCC1 [Example 50]
C#CC1(Nc2nc(=O)n(-c3cccnc3C)c3cc(C(F)(F)F)cc(OC)c23)CC1 [Example 49]
C#CCNc1nc(=O)n(-c2cccnc2C)c2cc(C(F)(F)F)ccc12 [Example 33, 1-(2-methylpyridin-3-yl)-4-(prop-2-yn-1-ylamino)-7-(trifluoromethyl)quinazolin-2 (1H)-one]
C#CCNc1nc(=O)n(-c2ccccc2Cl)c2cc(Cl)ccc12 [Example 10, 7-chloro-1-(2-chlorophenyl)-4-(prop-2-yn-1-ylamino)quinazolin-2 (1H)-one]
C#CCNc1nc(=O)n(-c2cccnc2C)c2cc(Cl)ccc12 [Example 15, 7-chloro-1-(2-methylpyridin-3-yl)-4-(prop-2-yn-1-ylamino)quinazolin-2 (1H1)-one]
C#CCNc1nc(=O)n(-c2cccnc2)c2cc(Cl)cc(F)c12 [Example 29, 7-chloro-5-fluoro-4-(prop-2-yn-1-ylamino)-1-(pyridin-3-yl)quinazolin-2 (1H)-one]

— patent US20250042890A1, “METHIONINE ADENOSYLTRANSFERASE 2a (MAT2A) INHIBITORS AND USES THEREOF” (Insilico Medicine IP Limited, priority 2021, published 2025)
